Measured values published in US20190183910A1, “ENHANCING DNA REPAIR AND PREVENTING AGING AND ITS CONSEQUENCES IN REPRODUCTIVE AND OTHER CELLS” (NEW YORK MEDICAL COLLEGE, priority 2016, published 2019).

How the values were obtained:
[1] = clinical use, FDA-approved for multiple sclerosis; cited from earlier work
[2] = post-transplantation clinical trials; cited from earlier work
[3] = tested on: mouse sperm; assay: Alkaline comet assay on mouse sperm; type: cell-based; conditions: mouse sperm, H2O2 alone (1 mM), without ATM inhibitor, n=9, mean±SEM
Description: (§1) Treatment was performed with genotoxic stress (1 mM H2O2), S1P (200 μM), and S1P with genotoxic stress and control in culture for one hour. Also, the use of an ATM inhibitor was utilized (10 μM) (KU-55593, Abcam) (Li et al., 2014). We assessed DNA damage, apoptosis, and chromatin integrity. We also studied the DNA DSB repair gene expression by qRT-PCR in sperm lysates.
Slides were prepared 48 hours prior to experimentation by coating normal glass microscope slides with 500 μl normal melting point agar (0.5% w/v in PBS) solution and left to dry at room temperature for no less than 48 hours. Then, 10 μl of mouse sperm suspension was mixed with 90 μl of 0.5% LMPA. Then this 100 μl solution was added to the NMPA-coated slides. Coverslips were added and slides were placed on a metallic tray on ice and in the dark for 5 minutes. The cover slips were removed and a 90 μl layer of LMPA was added. Cover slips were subsequently replaced before the LMPA hardened. Slides were then kept in the dark on ice again for another 5 minutes. After ten minutes, the cover slips were removed and slides were placed in staining jars containing ice cold lysing solution (2.5 M NaCl, 200 mM NaOH, 100 mM EDTA, 10 mM Trizma Base, 1% Triton X-100 and 10% DMSO [pH 10]) for 1.5 hours at 4° C. in a dark place.
After this lysis step, the slides were washed three times for 5 minutes with TE buffer (pH 8.0), and then placed flatly in the electrophoresis tank face up for 30 minutes to achieve the unwinding of the DNA. The alkaline electrophoresis buffer in this tank included 300 mM NaOH and 1 mM EDTA [pH13]. This incubation period was used to achieve the alkaline unwinding of the DNA. Electrophoresis was then performed at 25 V, 300 mA for 30 minutes. After this, slides were washed twice in neutralization buffer (0.4 M Tris, pH 7.5) for 5 minutes each. Before analysis could occur, the sperm within the slides needed to be fixed by draining the slides well on paper towels and then subjecting them to two 10 minute washes in ethanol, and then air drying at room temperature for 5 minutes. Ethidium bromide (50 μl at 10 μg/ml in water) was then added on the slide, and sealed with a cover slip. Slides were kept moist, wrapped in aluminum foil to prevent light exposure, and stored at 4° C. until analysis (Williams et al., 2014).
Slides from both alkaline and neutral comets were imaged by fluorescence microscopy using a Nikon OPTIPHOT microscope. ImageJ was used for comet assay analysis, which calculated tail length, tail moment, and % of DNA in the tail. […] To analyze the slides, an oval around the sperm head was drawn and calculated and then an oval around the sperm tail was drawn and calculated. […] It was calculated as the Pythagorean distance between two points. […]

[4] = tested on: human sperm; assay: Alkaline comet assay on human sperm; type: cell-based; conditions: H2O2 alone, without ATM inhibitor, n=3, mean±SEM
[5] = tested on: mouse sperm; assay: Neutral comet assay on mouse sperm; type: cell-based; conditions: mouse sperm, H2O2 alone (1 mM), without ATM inhibitor, n=9, mean±SEM
Description: as §1
Slides were prepared 48 hours prior to experimentation by coating normal glass microscope slides with 500 μl normal melting point agar (NMPA, 0.5% w/v in PBS) solution and left to dry at room temperature for no less than 48 hours. Once samples were obtained, 10 μl of mouse sperm suspension was mixed with 90 μl of 0.5% low melting point agar (LMPA). Then, this 100 μl solution was added to the NMPA-coated slides. Coverslips were added and slides were placed on a metallic tray on ice and in the dark for 5 minutes. The cover slips were then removed and another layer of LMPA was added. Cover slips were subsequently replaced before the LMPA hardened. Slides were then kept in the dark on ice again for another 5 minutes. After ten minutes, the cover slips were removed and slides were placed in staining jars containing ice cold lysing solution (2.5 M NaCl, 100 mM EDTA, sodium N-laurylsacrosinate [SLS]. [1% w/v] and 10 mM Trizma base pH10, and 1% Triton-X-100 and 10% DMSO [immediately adding before use]) for 1 hour at 4° C. in a dark place.
After this lysis step, the slides were washed three times for 5 minutes with the cold electrophoresis buffer (0.089 M Tris base, 0.089 M boric acid and 2 mM EDTA [pH 8.3]), and then placed flatly in the electrophoresis tank face up for 30 minutes. This incubation period was used to achieve the unwinding of the DNA. Electrophoresis was then performed at 18 V for 60 minutes. After this, slides were washed twice in PBS for 5 minutes each. Before analysis could occur, the sperm within the slides needed to be fixed by two 10 minute washes in ethanol, and then air drying at room temperature. Ethidium bromide (50 μl at 10 μg/ml in water) was then added on the slide, and sealed with a cover slip. Slides were kept moist, wrapped in aluminum foil to prevent light exposure, and stored at 4° C. until analysis (Smart et al., 2008).
Slides from both alkaline and neutral comets were imaged by fluorescence microscopy using a Nikon OPTIPHOT microscope. ImageJ was used for comet assay analysis, which calculated tail length, tail moment, and % of DNA in the tail. […] The comets were “on scale” for the calculations to be correct (the brightest pixels of interest were below 255 on an 8-bit scale). […] To analyze the slides, an oval around the sperm head was drawn and calculated and then an oval around the sperm tail was drawn and calculated. […] It was calculated as the Pythagorean distance between two points. […]

| SMILES | safety profile [1] | benefit as antirejection medication [2] | percent tail DNA, alkaline comet [3] | percent tail DNA, alkaline comet [4] | percent tail DNA, neutral comet [5] |
| --- | --- | --- | --- | --- | --- |
| CCCCCCCCc1ccc(CCC(N)(CO)CO)cc1 [FTY720] | acceptable safety profile | failed to show any significant benefit | – | – | – |
| OO [H2O2, reference compound] | – | – | 27.3±0.90% | 24.0±1.70% | 29.6±0.64% |
